Test results reported in patent publication US20250114331A1, “CONCURRENT TARGETING OF ONCOGENIC PATHWAYS TO ENHANCE CHEMOTHERAPY AND IMMUNOTHERAPY” (THE JOHNS HOPKINS UNIVERSITY, priority 2021, published 2025).
Entries after “also recorded” stand apart in the source; their conditions may differ.

Legend:
[1] = test system: H1299 xenografts; test: H1299 xenograft treatment; assay type: in vivo, NSG mice; details: verteporfin 50 mg/kg i.p. three times a week; S3I-201 5 mg/kg i.p. every day
Excerpt: (§1) For therapeutic experiments, 4- to 5-week-old NOD/SCID/IL2Ry−/− (NSG) mice were obtained from the Johns Hopkins Medical Institute's (Baltimore, MD) animal care facility. We injected H1299 cells (1×106) and H1437 cells (1×106), which were suspended in the mixture as described above, subcutaneously into both flanks. For the patient-derived xenograft (PDX) models, 13 PDX blocks (CTG0162, 0178, 0502, 0848, 1309, 1351, 1358, 1361, 1762, 1885, 2017, 2481, and 2708) were obtained from Champion Oncology. All these PDXs were established from primary lung adenocarcinoma tumors. The tumor tissues were cut into 4×2 mm pieces and implanted in the subcutaneous spaces of both flanks. When tumor volumes reached to 200+50 mm3, mice were randomly assigned to six experimental groups [control, chemo (cisplatin+gemcitabine), chemo+verteporfin, chemo+S3I-201, “all” (cisplatin+gemcitabine+verteporfin+S3I-201), and verteporfin+S3I-201] at 5 mice per group. Cisplatin (Sigma-Aldrich; #P4394), gemcitabine (Medkoo; #100410), S3I-201 (MedKoo; #202541), and verteporfin (Sigma-Aldrich; #1711461) were used to treat the mice. Cisplatin (2.5 mg/kg) and gemcitabine (120 mg/kg) were administrated via intraperitoneal injection once a week (22). […] Each tumor volume was measured every 3 days. Therapeutic efficacy was evaluated from percentage change of the tumor volume compared with the tumor size before treatment.

[2] = test system: MB49 derived xenograft; test: MB49 derived xenograft treated with STAT3 inhibitor; assay type: in vivo, C57BL/6 mice; details: for expression of CSC associated markers and CXCLs in tumor tissues: qRT-PCR
Method: In vivo xenograft assay and treatment. For in vivo xenograft, cells were suspended in 100 μL of a 1:1 mixture of serum-free DMEM and Cultrex Stem Cell Qualified Reduced Growth Factor Basement Membrane Extract (Trevigen, Gaithersburg, USA), and then injected subcutaneously into the both flanks of C57BL/6 mice for MB49/UPPL595/BBN975 cells.
YAP1 induces immunosuppression partially through IL6/STAT3 signaling and STAT3 inhibition mimics the antitumor activity of YAP1 attenuation. The present inventors recently reported that YAP1 positively regulates IL6/STAT3 signaling (38) in LUAD.

[3] = test system: H1299 and H1437 cells; test: Immunoblotting of YAP1, STAT3 and pSTAT3 after drug treatment; assay type: cell-based, human
Method: Western blotting. Cells were dissolved in RIPA buffer (Thermo Fisher Scientific) supplemented with proteinase inhibitor and phosphatase inhibitor cocktails (Roche, Mannheim, Germany). After total protein lysate was electrophoretically transferred onto PVDF membrane, the membrane was blocked with 5% skim milk in 0.05% TBS-Tween buffer and incubated at 4° C. overnight with a primary antibody specific to each protein. The membrane was then probed with an appropriate secondary antibody (Cell Signaling Technology, Danvers, USA). β-actin served as an endogenous control. The primary antibodies and dilution ratios were β-actin (Sigma-Aldrich; #A2228; 1:5000), NANOG (D73G4; Cell Signaling Technology; #4903; 1:1000), OCT4 (D705Z; Cell Signaling Technology; #75463; 1:500), SOX2 (EPR3131; Abcam, Cambridge, UK; #ab92494; 1:500), STAT3 (124H6; Cell Signaling Technology; #9139; 1:2000), pSTAT3 (D3A7; Cell Signaling Technology; #9145; 1:1000) and YAP1 (EP1674Y; Abcam, #ab52771; 1:2000).
To determine doses of these drugs that are effective for pathway inhibition, H1299 and H1437 cells were treated with verteporfin or S3I-201 for 72 hours.

[4] = test system: H1299 and H1437 cells; test: qRT-PCR of YAP1 and STAT3 pathway genes after drug treatment for 72 hours; assay type: cell-based, human
Method: qRT-PCR. The mRNA expression level of each gene was determined by qRT-PCR. […] We quantified the β-actin mRNA level to normalize the expression levels of the targeted genes. Each sample was tested in triplicate and run three times. Each graph shown in our figures indicates the average mRNA expression level of targeted genes compared with the β-actin expression level, with standard error of mean. To determine doses of these drugs that are effective for pathway inhibition, H1299 and H1437 cells were treated with verteporfin or S3I-201 for 72 hours.

[5] = test system: H1437 xenografts; test: H1437 xenograft treatment; assay type: in vivo, NSG mice; details: verteporfin 50 mg/kg i.p. three times a week; S3I-201 5 mg/kg i.p. every day
Excerpt: as §1

[6] = test system: H1299, H1437 and A549 cells; test: Apoptosis assay with cisplatin in YAP1-modified cells; assay type: cell-based, human; details: cisplatin 2 or 5 for 72 hours
Method: Apoptosis assay. Cells were incubated for 72 hours with CDDP (2 μM or 5 μM) or normal saline. Apoptosis assays were conducted using PE Annexin V Apoptosis Detection Kit with 7-AAD (BioLegend, San Diego, USA) according to manufacturer's protocol. Treated cells were analyzed by BD FACSCalibur flow cytometer (BD Biosciences, San Jose, USA).

[7] = test system: H1299, H1437 and A549 cells; test: Cell viability assay with cisplatin in YAP1/STAT3-modified cells; assay type: cell-based, human
Method: Cell proliferation assay and viability assay. Cell proliferation and viability were evaluated using Cell Counting Kit-8 (Dojindo Molecular Technologies). For cell proliferation assay, after cells (5×10^3/well) were seeded into 96-well plates with RPMI1640 containing 2% FBS, the optical density of each well was measured every 24 hours for 4 days. We added […] of cell counting kit-8 solution to each well 2 hours before measuring the absorbance (17). For the cell viability assay, after cells were incubated for 48 hours (5×10^3/well), they were exposed to each respective therapeutic agent for 72 hours. Cell viability for each agent was defined as the ratio of absorbance values of the treated cells to control cells (i.e., pharmacologically untreated or genetically unmodified). Absorbance values (450-630 nm) were measured by a Spectra Max 250 96-well Plate Reader (Molecular Devices). Each sample was applied to six wells, and their average rate was calculated. The therapeutic agents used here (in vitro) were cisplatin (Sigma-Aldrich; #P4394), S3I-201 (Santa Cruz Biotechnology; #sc-204304; ref. 18), and verteporfin (MedKoo; #203120).

[8] = test system: pSTAT3; test: Recombinant IL6 stimulation (Western blotting); assay type: cell-based, human; details: H1299 and H1437 YAP1-sh cells, 0.1, 1, or 10 ng/mL
Method: Recombinant IL6 stimulation and neutralization of IL6. For exogenous IL6 stimulation, 5×10^5 cells were seeded in 10-cm dishes. After 48 hours, human recombinant IL6 (0.1, 1, or 10 ng/mL) from PeproTech was added to the cells. They were harvested after 48-hour incubation. To neutralize the IL6, Human/Primate IL6 Antibody (R&D Systems) was administered. We cultured 5×10^5 cells in 10-cm dishes. After 48 hours, antibody (1 mg/mL) was added to the cells. They were then harvested after 24 or 48 hours. Protein expression of each sample was evaluated by Western blotting.

Compound: Cc1ccc(S(=O)(=O)OCC(=O)Nc2ccc(C(=O)O)c(O)c2)cc1 [S3I-201]
- tumor growth [1]: inhibited growth
- infiltration of MDSCs (GR-1) and CD8+ T cells in the TME, IHC ([2]; mouse, in vivo): decreased infiltration of MDSCs (GR-1) and significantly more CD8+ T cells
- tumor growth ([2]; mouse, in vivo): significant regression of the tumor growth
- expression of CSC associated markers and CXCLs in tumor tissues ([2]; listed as STAT3 inhibitor): downregulate different CXCR2 associated ligands
- expression of CSC associated markers and CXCLs in tumor tissues ([2]; listed as STAT-3 inhibitor): significantly decreased expression of CSC associated markers and CXCLs
- pSTAT3 expression [3]: suppressed pSTAT3 without affecting YAP1 or total STAT3 expressions; also recorded: suppressed pSTAT3 in a dose-dependent manner
- mRNA expression of STAT3 and its targeted genes NRP1 and PROS1 [4]: suppressed both STAT3 and its targeted genes; also recorded: inhibited mRNA expressions of not only NRP1 and PROS1 (STAT3-targeting genes) but also STAT3
- tumor growth [5]: did not significantly affect tumor growth

Compound: N.N.[Cl][Pt][Cl] [cisplatin]
- cells undergoing apoptosis ([6]; YAP1-LV cells versus control cells): lower fractions; also recorded: substantially less apoptosis
- cells undergoing apoptosis ([6]; YAP1-sh cells versus control cells): higher fractions of apoptotic cells; also recorded: greater percentages of cells undergoing apoptosis
- sensitivity to cisplatin (cell viability) ([7]; A549 YAP1-LV cells versus control cells, 72 hours): relatively resistant; also recorded: higher resistance
- sensitivity to cisplatin (cell viability) ([7]; A549 YAP1-LV/STAT3-si cells versus YAP1-LV/STAT3-Ctrl cells): restored cisplatin sensitivity
- sensitivity to cisplatin (cell viability) ([7]; H1299 and H1437 YAP1-sh cells versus control cells, 72 hours): increased sensitivities; also recorded: greater sensitivity
- sensitivity to cisplatin (cell viability) ([7]; YAP1-sh/STAT3-LV cells (H1299 and H1437) versus YAP1-sh/STAT3-Ctrl cells, 72 hours, 5 cisplatin): restored cell proliferation and cisplatin resistance; also recorded: less sensitivity
- sensitivity to cisplatin (cell viability) ([7]; YAP1-sh/STAT3-si cells (H1299 and H1437) versus single inhibition or control): greater sensitivity; also recorded: highest sensitivity

Compound: IL6: human recombinant IL6 from PeproTech
- pSTAT3 level [8]: increased pSTAT3 expressions in a dose-dependent manner
- pSTAT3 level ([8]; listed as recombinant human IL6): increased pSTAT3 levels dose dependently
